# Measured values as given in patent US20250353852A1, “COMPOUNDS AND COMPOSITIONS THAT INHIBIT PIKFYVE” (Kineta, Inc., priority 2021, published 2025).
# Target: full-length human PIKFYVE (Homo sapiens (Human), UniProt Q9Y2I7, L932S/Q1183K/Q995L/S1033A/S696N/T998S)
# Assay: PIKfyve biochemical assay (ADP-Glo Kinase assay, Carna Biosciences)
# Conditions: class symbols
# Description: PIKfyve Biochemical Assay. The biochemical […] inhibition assays were run by Carna Biosciences according to proprietary methodology based on the Promega […] Kinase assay. […] NP_055855.2] was expressed as N-terminal GST-fusion protein (265 kDa) using baculovirus expression system. GST-PIKFYVE was purified by using glutathione sepharose chromatography and used in an ADP-GloTM Kinase assay (Promega). Reactions were set up by adding the test compound solution, substrate solution, ATP solution and kinase solution, each at 4× final concentrations. Reactions were prepared with assay buffer (50 mM MOPS, 1 mM DTT, pH7.2), mixed, and incubated in black 384 well polystyrene plates for 1 hour at room temperature. ADP-Glo^TM reagent was then added for 40 minutes, followed by kinase detection reagent for an additional 40 minutes. The kinase activity was evaluated by detecting relative light units on a luminescence plate reader. […] IC50 values were calculated from concentration vs % inhibition curves by fitting to a four-parameter logistic curve. […] The biochemical […] inhibition assays were run by Carna Biosciences according to proprietary methodology based on the Promega ADP-GloTM Kinase assay. […] GST-PIKFYVE was purified by using glutathione sepharose chromatography and used in an ADP-GIoTM Kinase assay (Promega). Reactions were set up by adding the test compound solution, substrate solution, ATP solution and kinase solution, each at 4× final concentrations. Reactions were prepared with assay buffer (50 mM MOPS, 1 mM DTT, pH7.2), mixed, and incubated in black 384 well polystyrene plates for 1 hour at room temperature. ADP-GIoTM reagent was then added for 40 minutes, followed by kinase detection reagent for an additional 40 minutes. The kinase activity was evaluated by detecting relative light units on a luminescence plate reader. […] IC50 values were calculated from concentration vs % inhibition curves by fitting to a four-parameter logistic curve. […] The same compounds were also tested in both FAB1 and PIKFYVE TDP-43 yeast models.
# Chain of full-length human PIKFYVE (Q9Y2I7 whole entry S696N/L932S/Q995L/T998S/S1033A/Q1183K): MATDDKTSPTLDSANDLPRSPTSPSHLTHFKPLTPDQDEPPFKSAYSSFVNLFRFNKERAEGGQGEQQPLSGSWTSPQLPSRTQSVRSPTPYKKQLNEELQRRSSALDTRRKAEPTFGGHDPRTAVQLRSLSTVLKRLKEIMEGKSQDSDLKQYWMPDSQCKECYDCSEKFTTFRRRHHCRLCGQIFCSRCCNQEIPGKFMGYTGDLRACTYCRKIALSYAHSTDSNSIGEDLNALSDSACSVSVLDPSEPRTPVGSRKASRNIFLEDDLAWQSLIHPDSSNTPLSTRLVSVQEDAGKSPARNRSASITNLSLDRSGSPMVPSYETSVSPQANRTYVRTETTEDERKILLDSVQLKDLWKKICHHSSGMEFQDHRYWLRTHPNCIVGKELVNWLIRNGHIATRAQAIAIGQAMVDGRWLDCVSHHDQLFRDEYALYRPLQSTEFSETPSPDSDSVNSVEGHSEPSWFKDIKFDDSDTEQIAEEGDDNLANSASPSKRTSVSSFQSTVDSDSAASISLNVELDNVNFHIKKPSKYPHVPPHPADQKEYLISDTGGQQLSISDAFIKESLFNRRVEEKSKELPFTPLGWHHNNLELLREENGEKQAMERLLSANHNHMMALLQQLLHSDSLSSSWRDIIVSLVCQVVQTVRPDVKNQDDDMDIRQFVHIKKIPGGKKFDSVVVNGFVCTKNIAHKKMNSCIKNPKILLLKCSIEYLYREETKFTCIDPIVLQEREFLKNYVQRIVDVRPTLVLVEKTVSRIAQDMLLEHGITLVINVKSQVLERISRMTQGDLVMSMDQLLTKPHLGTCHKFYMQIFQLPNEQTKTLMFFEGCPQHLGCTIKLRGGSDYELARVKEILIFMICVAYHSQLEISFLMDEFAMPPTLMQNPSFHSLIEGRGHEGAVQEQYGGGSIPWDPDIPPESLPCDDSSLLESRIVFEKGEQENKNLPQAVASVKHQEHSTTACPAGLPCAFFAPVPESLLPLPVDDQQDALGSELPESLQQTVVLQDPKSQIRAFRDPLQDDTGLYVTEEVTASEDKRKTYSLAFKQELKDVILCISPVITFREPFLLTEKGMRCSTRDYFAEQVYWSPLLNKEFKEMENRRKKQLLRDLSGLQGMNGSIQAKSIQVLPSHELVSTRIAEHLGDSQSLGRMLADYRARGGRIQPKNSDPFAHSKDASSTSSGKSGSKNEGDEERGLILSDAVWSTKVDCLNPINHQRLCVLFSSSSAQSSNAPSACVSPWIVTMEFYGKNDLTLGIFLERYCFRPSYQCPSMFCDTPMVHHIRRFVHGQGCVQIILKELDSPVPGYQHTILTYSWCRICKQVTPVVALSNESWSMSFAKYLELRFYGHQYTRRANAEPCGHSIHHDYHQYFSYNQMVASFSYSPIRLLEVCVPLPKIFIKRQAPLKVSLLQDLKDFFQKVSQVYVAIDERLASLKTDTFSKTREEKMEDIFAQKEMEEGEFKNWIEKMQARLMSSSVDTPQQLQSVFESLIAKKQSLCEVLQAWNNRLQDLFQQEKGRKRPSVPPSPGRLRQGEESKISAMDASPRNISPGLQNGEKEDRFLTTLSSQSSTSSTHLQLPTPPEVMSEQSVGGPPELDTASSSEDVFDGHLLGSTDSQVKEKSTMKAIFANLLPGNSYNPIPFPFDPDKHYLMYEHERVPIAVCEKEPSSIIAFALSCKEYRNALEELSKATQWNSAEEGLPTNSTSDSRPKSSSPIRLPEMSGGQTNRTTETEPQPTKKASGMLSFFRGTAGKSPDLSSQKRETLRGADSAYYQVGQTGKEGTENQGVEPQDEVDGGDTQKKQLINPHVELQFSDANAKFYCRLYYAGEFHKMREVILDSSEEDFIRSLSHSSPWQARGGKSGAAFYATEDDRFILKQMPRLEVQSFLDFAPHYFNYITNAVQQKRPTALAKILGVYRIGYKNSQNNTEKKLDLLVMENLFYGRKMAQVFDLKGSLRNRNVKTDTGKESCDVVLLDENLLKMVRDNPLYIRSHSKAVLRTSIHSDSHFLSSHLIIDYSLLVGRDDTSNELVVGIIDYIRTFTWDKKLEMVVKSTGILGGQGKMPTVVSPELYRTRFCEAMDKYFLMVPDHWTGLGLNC
row,Compound,IC50
1,"c1ccc(Cc2ncccc2-c2cc(N3CCOCC3)n3nc(-c4ccncc4)cc3n2)cc1 [Compound 39, 4-(5-(2-benzylpyridin-3-yl)-2-(pyridin-4-yl)pyrazolo[1,5-a]pyrimidin-7-yl)morpholine]",1000 to 10000 nM
2,"c1ccc(Cc2cccnc2-c2cc(N3CCOCC3)n3nc(-c4ccncc4)cc3n2)cc1 [Compound 40, 4-(5-(3-benzylpyridin-2-yl)-2-(pyridin-4-yl)pyrazolo[1,5-a]pyrimidin-7-yl)morpholine]",1000 to 10000 nM
3,"c1ccc(Oc2cccnc2-c2cc(N3CCOCC3)n3nc(-c4ccncc4)cc3n2)cc1 [Compound 41, 4-(5-(3-phenoxypyridin-2-yl)-2-(pyridin-4-yl)pyrazolo[1,5-a]pyrimidin-7-yl)morpholine]",100 to 1000 nM
4,"c1ccc(Oc2ncccc2-c2cc(N3CCOCC3)n3nc(-c4ccncc4)cc3n2)cc1 [Compound 42, 4-(5-(2-phenoxypyridin-3-yl)-2-(pyridin-4-yl)pyrazolo[1,5-a]pyrimidin-7-yl)morpholine]",100 to 1000 nM
5,"Oc1cc(-c2cncnc2)nn1-c1cc(N2CCOCC2)n2nc(-c3ccncc3)cc2n1 [Compound 44, 1-(7-morpholino-2-(pyridin-4-yl)pyrazolo[1,5-a]pyrimidin-5-yl)-3-(pyrimidin-5-yl)-1H-pyrazol-5-ol]",100 to 1000 nM
6,"Cc1ccccc1-c1cc(O)n(-c2cc(N3CCOCC3)n3nc(-c4ccncc4)cc3n2)n1 [Compound 46, 1-(7-morpholino-2-(pyridin-4-yl)pyrazolo[1,5-a]pyrimidin-5-yl)-3-(o-tolyl)-1H-pyrazol-5-ol]",10 to 100 nM
7,"Oc1cc(C2CCCCC2)nn1-c1cc(N2CCOCC2)n2nc(-c3ccncc3)cc2n1 [Compound 49, 3-cyclohexyl-1-(7-morpholino-2-(pyridin-4-yl)pyrazolo[1,5-a]pyrimidin-5-yl)-1H-pyrazol-5-ol]",100 to 1000 nM
8,"Oc1cc(C2CCOCC2)nn1-c1cc(N2CCOCC2)n2nc(-c3ccncc3)cc2n1 [Compound 50, 1-(7-morpholino-2-(pyridin-4-yl)pyrazolo[1,5-a]pyrimidin-5-yl)-3-(tetrahydro-2H-pyran-4-yl)-1H-pyrazol-5-ol]",100 to 1000 nM
9,"Oc1cc(-c2ccccc2F)nn1-c1cc(N2CCOCC2)n2nc(-c3ccncc3)cc2n1 [Compound 53, 3-(2-fluorophenyl)-1-(7-morpholino-2-(pyridin-4-yl)pyrazolo[1,5-a]pyrimidin-5-yl)-1H-pyrazol-5-ol]",10 to 100 nM
10,"CC(C)c1cc(O)n(-c2cc(N3CCOCC3)n3nc(-c4ccncc4)cc3n2)n1 [Compound 54, 3-isopropyl-1-(7-morpholino-2-(pyridin-4-yl)pyrazolo[1,5-a]pyrimidin-5-yl)-1H-pyrazol-5-ol]",100 to 1000 nM
11,"Oc1c2c(nn1-c1cc(N3CCOCC3)n3nc(-c4ccncc4)cc3n1)CCCC2 [Compound 55, 2-(7-morpholino-2-(pyridin-4-yl)pyrazolo[1,5-a]pyrimidin-5-yl)-4,5,6,7-tetrahydro-2H-indazol-3-ol]",100 to 1000 nM
12,"CN1CCC(c2cc(O)n(-c3cc(N4CCOCC4)n4nc(-c5ccncc5)cc4n3)n2)CC1 [Compound 56, 3-(1-methylpiperidin-4-yl)-1-(7-morpholino-2-(pyridin-4-yl)pyrazolo[1,5-a]pyrimidin-5-yl)-1H-pyrazol-5-ol]",100 to 1000 nM
13,"Oc1cc(-c2cc(N3CCOCC3)n3nc(-c4ccncc4)cc3n2)nn1-c1ccccc1 [Compound 57, 3-(7-morpholino-2-(pyridin-4-yl)pyrazolo[1,5-a]pyrimidin-5-yl)-1-phenyl-1H-pyrazol-5-ol]",10 to 100 nM
14,"Oc1cc(-c2cc(N3CCOCC3)n3nc(-c4ccncc4)cc3n2)nn1-c1cccnc1 [Compound 58, 3-(7-morpholino-2-(pyridin-4-yl)pyrazolo[1,5-a]pyrimidin-5-yl)-1-(pyridin-3-yl)-1H-pyrazol-5-ol]",10 to 100 nM
15,"Oc1cc(-c2cc(N3CCOCC3)n3nc(-c4ccncc4)cc3n2)nn1-c1cccc(F)c1 [Compound 59, 1-(3-fluorophenyl)-3-(7-morpholino-2-(pyridin-4-yl)pyrazolo[1,5-a]pyrimidin-5-yl)-1H-pyrazol-5-ol]",10 to 100 nM
16,"Fc1cncc(-c2ccn(-c3cc(N4CCOCC4)n4nc(-c5ccncc5)cc4n3)n2)c1 [Compound 60, 4-(5-(3-(5-fluoropyridin-3-yl)-1H-pyrazol-1-yl)-2-(pyridin-4-yl)pyrazolo[1,5-a]pyrimidin-7-yl)morpholine]",100 to 1000 nM

row,Compound,IC50
1,"c1cc(-c2cc3nc(-n4ccc(C5CCCOC5)n4)cc(N4CCOCC4)n3n2)ccn1 (centres unmarked) [Compound 61, 4-(2-(pyridin-4-yl)-5-(3-(tetrahydro-2H-pyran-3-yl)-1H-pyrazol-1-yl)pyrazolo[1,5-a]pyrimidin-7-yl)morpholine]",1000 to 10000 nM
2,"c1cc(-c2cc3nc(-n4ccc(C5CCNCC5)n4)cc(N4CCOCC4)n3n2)ccn1 [Compound 62, 4-(5-(3-(piperidin-4-yl)-1H-pyrazol-1-yl)-2-(pyridin-4-yl)pyrazolo[1,5-a]pyrimidin-7-yl)morpholine]",100 to 1000 nM
3,"CN1CCC(c2ccn(-c3cc(N4CCOCC4)n4nc(-c5ccncc5)cc4n3)n2)CC1 [Compound 63, 4-(5-(3-(1-methylpiperidin-4-yl)-1H-pyrazol-1-yl)-2-(pyridin-4-yl)pyrazolo[1,5-a]pyrimidin-7-yl)morpholine]",100 to 1000 nM
4,"c1cc(-c2cc3nc(-n4ccc(C5CCCNC5)n4)cc(N4CCOCC4)n3n2)ccn1 (centres unmarked) [Compound 67, 4-(5-(3-(piperidin-3-yl)-1H-pyrazol-1-yl)-2-(pyridin-4-yl)pyrazolo[1,5-a]pyrimidin-7-yl)morpholine]",100 to 1000 nM
5,"CN1CCCC(c2ccn(-c3cc(N4CCOCC4)n4nc(-c5ccncc5)cc4n3)n2)C1 (centres unmarked) [Compound 68, 4-(5-(3-(1-methylpiperidin-3-yl)-1H-pyrazol-1-yl)-2-(pyridin-4-yl)pyrazolo[1,5-a]pyrimidin-7-yl)morpholine]",100 to 1000 nM
6,"c1cc(-c2cc3nc(-n4ccc(-c5ccnnc5)n4)cc(N4CCOCC4)n3n2)ccn1 [Compound 69, 4-(5-(3-(pyridazin-4-yl)-1H-pyrazol-1-yl)-2-(pyridin-4-yl)pyrazolo[1,5-a]pyrimidin-7-yl)morpholine]",100 to 1000 nM
7,"c1ccc(-c2ccn(-c3cc(N4CCOCC4)n4nc(-c5ccncc5)cc4n3)n2)nc1 [Compound 70, 4-(5-(3-(pyridin-2-yl)-1H-pyrazol-1-yl)-2-(pyridin-4-yl)pyrazolo[1,5-a]pyrimidin-7-yl)morpholine]",100 to 1000 nM
8,"c1cc(-c2cc3nc(-n4ccc(-c5cncnc5)n4)cc(N4CCOCC4)n3n2)ccn1 [Compound 72, 4-(2-(pyridin-4-yl)-5-(3-(pyrimidin-5-yl)-1H-pyrazol-1-yl)pyrazolo[1,5-a]pyrimidin-7-yl)morpholine]",100 to 1000 nM
9,"c1cc(-c2cc3nc(-n4ccc(C5CNC5)n4)cc(N4CCOCC4)n3n2)ccn1 [Compound 73, 4-(5-(3-(Azetidin-3-yl)-1H-pyrazol-1-yl)-2-(pyridin-4-yl)pyrazolo[1,5-a]pyrimidin-7-yl)morpholine]",100 to 1000 nM
10,"FC1(F)CNCC(c2ccn(-c3cc(N4CCOCC4)n4nc(-c5ccncc5)cc4n3)n2)C1 (centres unmarked) [Compound 74, 4-(5-(3-(5,5-difluoropiperidin-3-yl)-1H-pyrazol-1-yl)-2-(pyridin-4-yl)pyrazolo[1,5-a]pyrimidin-7-yl)morpholine]",1000 to 10000 nM
11,"OCCc1ccn(-c2cc(N3CCOCC3)n3nc(-c4ccncc4)cc3n2)n1 [Compound 80, 2-(1-(7-morpholino-2-(pyridin-4-yl)pyrazolo[1,5-a]pyrimidin-5-yl)-1H-pyrazol-3-yl)ethan-1-ol]",100 to 1000 nM
12,"COCCc1ccn(-c2cc(N3CCOCC3)n3nc(-c4ccncc4)cc3n2)n1 [Compound 81, 4-(5-(3-(2-methoxyethyl)-1H-pyrazol-1-yl)-2-(pyridin-4-yl)pyrazolo[1,5-a]pyrimidin-7-yl)morpholine]",100 to 1000 nM
13,"OCC1(c2ccn(-c3cc(N4CCOCC4)n4nc(-c5ccncc5)cc4n3)n2)CC1 [Compound 82, (1-(1-(7-morpholino-2-(pyridin-4-yl)pyrazolo[1,5-a]pyrimidin-5-yl)-1H-pyrazol-3-yl)cyclopropyl)methanol]",100 to 1000 nM
14,"COCC1(c2ccn(-c3cc(N4CCOCC4)n4nc(-c5ccncc5)cc4n3)n2)CC1 [Compound 83, 4-(5-(3-(1-(methoxymethyl)cyclopropyl)-1H-pyrazol-1-yl)-2-(pyridin-4-yl)pyrazolo[1,5-a]pyrimidin-7-yl)morpholine]",100 to 1000 nM
15,"CC1(CCc2ccn(-c3cc(N4CCOCC4)n4nc(-c5ccncc5)cc4n3)n2)CC1 [Compound 84, 4-(5-(3-(2-(1-methylcyclopropyl)ethyl)-1H-pyrazol-1-yl)-2-(pyridin-4-yl)pyrazolo[1,5-a]pyrimidin-7-yl)morpholine]",1000 to 10000 nM
16,"c1cc(-c2cc3nc(-n4cc5c(n4)CCCC5)cc(N4CCOCC4)n3n2)ccn1 [Compound 85, 4-(2-(pyridin-4-yl)-5-(4,5,6,7-tetrahydro-2H-indazol-2-yl)pyrazolo[1,5-a]pyrimidin-7-yl)morpholine]",100 to 1000 nM
